Laboratory results taken from ChEMBL document CHEMBL1157238, “An unusual oxalylated tetramic acid from the New Zealand basidiomycete Chamonixia pachydermis” (2006).

System: Bacillus subtilis
Experiment: Antibacterial activity against Bacillus subtilis at 40 ug by agar diffusion assay
Type: functional
Details: read-out: IZ

For `O=C(O)C(=O)C1=C(O)/C(=C/c2ccc(O)c(Cl)c2)NC1=O` [PACHYDERMIN], the zone of inhibition at 40 µg/disc was 1 mm.
